According to PubChem BioAssay (NCI):
Where “and” joins values, the source holds several entries; their conditions need not be identical. Identical values can stand only once.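 Assay format: 96-well plates, 48-hour exposure. The concentration for 50% growth inhibition is given as GI50. At the TGI there is no net growth.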 Where a SMILES comes first, the peptide text is derived from it. The star is where a group is joined. Boc = CC(C)(C)OC(=O)*

How the values were obtained:
Experiment in all cases: NCI tumour cell line growth inhibition, 48 h
[1] = system: RPMI-8226 leukemia
[2] = system: SK-MEL-28 melanoma
[3] = system: SF-295 CNS
[4] = system: SK-MEL-5 melanoma
[5] = system: NCI-H23 lung
[6] = system: NCI-H522 lung
[7] = system: UACC-257 melanoma
[8] = system: 786-0 renal
[9] = system: ACHN renal
[10] = system: RXF 393 renal

## COC(=O)C(C)NC(=O)C(CCSC)NC(=O)C(Cc1ccccc1)NC(=O)OC(C)(C)C (stereo not drawn) (Boc-Phe-Met-Ala-OMe; configuration not given here)
[1]
  GI50: 22.4 µg/mL
  TGI: 49.5 µg/mL and > 100 µM
[2]
  GI50: 38.9 µg/mL
  TGI: > 100 µM
[3]
  TGI: > 100 µM
[4]
  TGI: > 100 µM
[5]
  GI50: 41.9 µg/mL
  TGI: > 100 µM
[6]
  GI50: 13.1 µg/mL
[7]
  TGI: > 100 µM
[8]
  GI50: 43.3 µg/mL
  TGI: > 100 µM
[9]
  TGI: > 100 µM

## O=C(Nc1cc(C(F)(F)F)ccc1Cl)c1cccc(NC2=C(Cl)C(=O)N(Cc3ccccc3)C2=O)c1
[1]
  GI50: 2.92 µM
  TGI: 50 µM
[2]
  GI50: > 100 µM
  TGI: > 100 µM
[3]
  GI50: 29.1 µM
  TGI: > 100 µM
[4]
  GI50: 12.8 µM
  TGI: > 100 µM
[6]
  GI50: 6.8 µM
  TGI: 45.3 µM
[7]
  GI50: 53.7 µM
  TGI: > 100 µM
[8]
  GI50: 38.5 µM
  TGI: > 100 µM
[9]
  GI50: 99.9 µM
  TGI: > 100 µM

## CC(C)(C)[Si](C)(C)OC1C(=O)C[C@H]2CCCC[C@@H]12 (some centres not stated)
[1]
  TGI: > 100 µM
[3]
  TGI: > 100 µM
[4]
  TGI: > 100 µM
[5]
  TGI: > 100 µM
[10]
  TGI: > 100 µM
[7]
  TGI: > 100 µM
[8]
  TGI: > 100 µM
[9]
  TGI: > 100 µM

## CC(=O)N1CCC(=O)/C(=C/c2ccccc2)C1
[1]
  TGI: > 100 µM
[2]
  TGI: 38.3 µM
[3]
  TGI: > 100 µM
[4]
  TGI: > 100 µM
[5]
  TGI: > 100 µM
[10]
  TGI: 67.6 µM
[7]
  TGI: > 100 µM
[8]
  TGI: 69.6 µM
[9]
  TGI: 56.8 µM

## COC(=O)c1cc2c(s1)-c1nccc3c1c(nc1ccccc13)C2=O
[2]
  GI50: > 100 µM
  TGI: > 100 µM
[3]
  GI50: > 100 µM
  TGI: > 100 µM
[4]
  GI50: 33.8 µM
  TGI: > 100 µM
[5]
  GI50: > 100 µM
  TGI: > 100 µM
[6]
  GI50: 35 µM
  TGI: > 100 µM
[10]
  GI50: 29.8 µM
  TGI: > 100 µM
[7]
  GI50: 32 µM
  TGI: > 100 µM
[8]
  GI50: > 100 µM
  TGI: > 100 µM
[9]
  GI50: > 100 µM
  TGI: > 100 µM

## C[Si](C)(C)/C(I)=C/CO
[1]
  TGI: 40.7 µM
[2]
  TGI: 77.5 µM
[3]
  TGI: 58.3 µM
[4]
  TGI: 34.6 µM
[5]
  TGI: 39.5 µM
[6]
  TGI: 34.5 µM
[7]
  TGI: 45.2 µM
[8]
  TGI: > 100 µM
[9]
  TGI: 46.4 µM

## O=c1[nH]c2ccc(O)cc2o1
[2]
  TGI: > 100 µM
[3]
  TGI: > 100 µM
[4]
  TGI: > 100 µM
[5]
  TGI: > 100 µM
[6]
  TGI: > 100 µM
[10]
  TGI: > 100 µM
[7]
  TGI: > 100 µM
[8]
  TGI: > 100 µM
[9]
  TGI: > 100 µM

## CC(C)=CCc1cc2c(cc1O)OC[C@H]1c3cc4c(cc3O[C@@H]21)OCO4
[2]
  TGI: > 100 µM
[3]
  TGI: > 100 µM
[4]
  TGI: 39.3 µM
[5]
  TGI: 96.3 µM
[6]
  TGI: > 100 µM
[10]
  TGI: 48.7 µM
[7]
  TGI: > 100 µM
[8]
  TGI: > 100 µM
[9]
  TGI: > 100 µM

## Cc1nc2cc(Nc3nc(Nc4ccc(F)cc4)nc(-c4cccs4)n3)ccc2n1Cc1ccccc1
[1]
  GI50: 2.07 µM
  TGI: 5.91 µM
[2]
  GI50: 9.47 µM
  TGI: > 100 µM
[3]
  GI50: 3.61 µM
  TGI: 16.7 µM
[4]
  GI50: 4.18 µM
  TGI: 17.3 µM
[5]
  GI50: 5.87 µM
  TGI: 32.7 µM
[6]
  GI50: 2.66 µM
  TGI: 9.16 µM
[7]
  GI50: 5.42 µM
  TGI: 30.1 µM
[8]
  GI50: 3.07 µM
  TGI: 9.11 µM
[9]
  GI50: 3.86 µM
  TGI: 59.9 µM

## CCOC(=O)c1ccc(N=Nc2cc(C(=O)OCC)ccc2O)cc1
[1]
  TGI: > 100 µM
[2]
  TGI: > 100 µM
[4]
  TGI: > 100 µM
[5]
  TGI: > 100 µM
[6]
  TGI: > 100 µM
[10]
  TGI: > 100 µM
[8]
  TGI: > 100 µM
[9]
  TGI: > 100 µM

## C[Si](C)(C)/C(Br)=C\CCN1C(=O)CCC1=O
[2]
  TGI: > 100 µM
[3]
  TGI: > 100 µM
[4]
  TGI: > 100 µM
[5]
  TGI: > 100 µM
[10]
  TGI: > 100 µM
[7]
  TGI: > 100 µM
[8]
  TGI: > 100 µM
[9]
  TGI: > 100 µM

## COc1ccc(/C(=C\C=C(C#N)C#N)Sc2nc3ccccc3s2)cc1
[3]
  GI50: 13.6 µM
  TGI: 39.9 µM
[4]
  GI50: 7.87 µM
  TGI: 16.5 µM
[5]
  GI50: 9.46 µM
  TGI: 20 µM
[6]
  GI50: 14.6 µM
  TGI: > 50 µM
[10]
  GI50: 1.47 µM
  TGI: 2.97 µM
[7]
  GI50: 10.3 µM
  TGI: 23.7 µM
[8]
  GI50: 1.7 µM
  TGI: 5.66 µM

## COC12OCCN(C)C1=CC(=O)C1=NNC(C)C12 (configuration not stated)
[1]
  TGI: > 100 µM
[2]
  TGI: > 100 µM
[3]
  TGI: > 100 µM
[4]
  TGI: > 100 µM
[5]
  TGI: > 100 µM
[6]
  TGI: > 100 µM
[10]
  TGI: > 100 µM
[7]
  TGI: > 100 µM
[8]
  TGI: > 100 µM

## C[C@]12CCC(=O)C=C1CC[C@@H]1C2CC[C@]2(C)Nc3[nH]ncc3CC12 (some centres not stated)
[1]
  TGI: > 100 µM
[2]
  TGI: > 100 µM
[3]
  TGI: > 100 µM
[4]
  TGI: > 100 µM
[5]
  TGI: > 100 µM
[10]
  TGI: > 100 µM
[7]
  TGI: > 100 µM
[8]
  TGI: > 100 µM
[9]
  TGI: > 100 µM

## [N-]=[N+]=N/C1=C/CCCCC(=O)C1
[1]
  TGI: > 100 µM
[2]
  TGI: > 100 µM
[4]
  TGI: > 100 µM
[5]
  TGI: > 100 µM
[6]
  TGI: > 100 µM
[10]
  TGI: > 100 µM
[7]
  TGI: > 100 µM
[8]
  TGI: > 100 µM

## Cn1cc(-c2csc(-c3c[nH]c4ccc(Br)cc34)n2)c2cnccc21
[1]
  GI50: 2.13 µM
  TGI: 4.8 µM
[2]
  GI50: 1.7 µM
  TGI: 3.31 µM
[4]
  GI50: 1.88 µM
  TGI: 4.25 µM
[5]
  GI50: 2.73 µM
  TGI: 8.79 µM
[10]
  GI50: 1.47 µM
  TGI: 2.96 µM
[8]
  GI50: 1.63 µM
  TGI: 3.4 µM

## O=C1CCC/C=C\C[C@H]2C=CC(=O)/C2=C/C[C@H](C/C=C\CC(F)(F)F)O1
[1]
  GI50: 0.275 µM
  TGI: 0.858 µM
[2]
  GI50: 0.571 µM
  TGI: 2.25 µM
[3]
  GI50: 0.401 µM
  TGI: 1.13 µM
[4]
  GI50: 0.342 µM
  TGI: 0.78 µM
[5]
  GI50: 0.698 µM
  TGI: 3.67 µM
[6]
  GI50: 0.257 µM
  TGI: 0.537 µM
[10]
  GI50: 0.424 µM
  TGI: 1.4 µM
[8]
  GI50: 0.311 µM
  TGI: 0.677 µM
[9]
  GI50: 0.333 µM
  TGI: 0.629 µM

## S=c1[nH]c2c(Cl)c(Cl)c(Cl)c(Cl)c2[nH]1
[1]
  TGI: 30.1 µM
[3]
  TGI: 47.1 µM
[4]
  TGI: 37.2 µM
[5]
  TGI: > 100 µM
[6]
  TGI: 3.71 µM
[10]
  TGI: 35.4 µM
[7]
  TGI: 46.4 µM
[8]
  TGI: 63.3 µM
[9]
  TGI: 40.7 µM

## C[C@H]1CN[C@@H]2[C@@H](C)[C@H]3[C@@H](C[C@H]4[C@@H]5CC[C@H]6C[C@@H](N)CC[C@]6(C)[C@H]5CC[C@]34C)O[C@@]2(O)C1
[2]
  TGI: 4.23 µM
[3]
  TGI: 10.3 µM
[4]
  TGI: 10.4 µM
[5]
  TGI: 26.9 µM
[6]
  TGI: 5.91 µM
[7]
  TGI: 3.74 µM
[8]
  TGI: 3.66 µM
[9]
  TGI: 9.3 µM
